# In PubChem BioAssay AID256 (DTP/NCI, 2004):
# Several values for one entry are separate records, joined by “and”; a condition that tells them apart may be missing. Equal entries are not always repeated. Toxic doses and inconclusive results are not listed.
# System: CD2F1 mice, L1210 leukemia ip, survival T/C
# Experiment: NCI In Vivo Anticancer Drug Screen. Data for tumor model L1210 Leukemia (intraperitoneal) in CD2F1 (CDF1) mice
# Settings: higher = longer survival
# In short: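 Activity against a transplanted murine tumor was judged by comparing the compound group with a vehicle group. The outcome in the treated animals was divided by that in the controls.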
# [1] = endpoint: mean survival time, dose: 100.0 mg/kg/injection, schedule: Q01DX009 (ip), vehicle: saline with Tween-80
# [2] = endpoint: mean survival time, dose: 200.0 mg/kg/injection, schedule: Q01DX009 (ip), vehicle: saline with Tween-80
# [3] = endpoint: mean survival time, dose: 400.0 mg/kg/injection, schedule: Q01DX009 (ip), vehicle: saline with Tween-80
smiles,measurement,setting,value
O=CC(NC(=O)N(CCCl)N=O)C(O)C(O)C(O)CO (stereo not given),T/C,"endpoint: mean survival time, dose: 0.94 mg/kg/injection, schedule: Q01DX009 (ip), vehicle: citric acid",117 % of control
same,T/C,"endpoint: mean survival time, dose: 1.88 mg/kg/injection, schedule: Q01DX009 (ip), vehicle: citric acid",162 % of control
same,T/C,"endpoint: mean survival time, dose: 3.75 mg/kg/injection, schedule: Q01DX009 (ip), vehicle: citric acid",182 % of control and 242 % of control
same,T/C,"endpoint: mean survival time, dose: 3.75 mg/kg/injection, schedule: Q01DX009 (ip), vehicle: saline",186 % of control
same,T/C,"endpoint: mean survival time, dose: 3.8 mg/kg/injection, schedule: Q01DX009 (ip), vehicle: water",406 % of control
same,T/C,"endpoint: mean survival time, dose: 5.0 mg/kg/injection, schedule: Q04DX002 (ip), vehicle: saline",173 % of control and 250 % of control
same,T/C,"endpoint: mean survival time, dose: 7.0 mg/kg/injection, schedule: Q01DX001 (ip), vehicle: saline",115 % of control
same,T/C,"endpoint: mean survival time, dose: 7.5 mg/kg/injection, schedule: Q01DX009 (ip), vehicle: citric acid",97 % of control
same,T/C,"endpoint: mean survival time, dose: 7.5 mg/kg/injection, schedule: Q01DX009 (ip), vehicle: saline",223 % of control
same,T/C,"endpoint: mean survival time, dose: 7.5 mg/kg/injection, schedule: Q01DX009 (ip), vehicle: water",154 % of control
same,T/C,"endpoint: mean survival time, dose: 8.0 mg/kg/injection, schedule: Q01DX001 (ip), vehicle: water",267 % of control
same,T/C,"endpoint: mean survival time, dose: 10.0 mg/kg/injection, schedule: Q04DX002 (ip), vehicle: saline",276 % of control and 289 % of control
same,T/C,"endpoint: mean survival time, dose: 11.0 mg/kg/injection, schedule: Q01DX001 (ip), vehicle: saline",151 % of control and 160 % of control
same,T/C,"endpoint: mean survival time, dose: 12.5 mg/kg/injection, schedule: Q01DX001 (ip), vehicle: saline",158 % of control
same,T/C,"endpoint: mean survival time, dose: 15.0 mg/kg/injection, schedule: Q01DX009 (ip), vehicle: saline",120 % of control
same,T/C,"endpoint: mean survival time, dose: 15.0 mg/kg/injection, schedule: Q01DX009 (ip), vehicle: water",93 % of control
same,T/C,"endpoint: mean survival time, dose: 16.0 mg/kg/injection, schedule: Q01DX001 (ip), vehicle: saline",336 % of control [middle of 4 runs]
same,T/C,"endpoint: mean survival time, dose: 16.0 mg/kg/injection, schedule: Q01DX001 (ip), vehicle: water",369 % of control
same,T/C,"endpoint: mean survival time, dose: 20.0 mg/kg/injection, schedule: Q01DX001 (ip), vehicle: saline",688 % of control
same,T/C,"endpoint: mean survival time, dose: 20.0 mg/kg/injection, schedule: Q04DX002 (ip), vehicle: saline",331 % of control and 335 % of control
same,T/C,"endpoint: mean survival time, dose: 25.0 mg/kg/injection, schedule: Q01DX001 (ip), vehicle: saline",535 % of control
same,T/C,"endpoint: mean survival time, dose: 28.0 mg/kg/injection, schedule: Q01DX001 (ip), vehicle: saline",857 % of control
same,T/C,"endpoint: mean survival time, dose: 32.0 mg/kg/injection, schedule: Q01DX001 (ip), vehicle: water",372 % of control
same,T/C,"endpoint: mean survival time, dose: 36.0 mg/kg/injection, schedule: Q01DX001 (ip), vehicle: saline",603 % of control [middle of 4 runs]
same,T/C,"endpoint: mean survival time, dose: 40.0 mg/kg/injection, schedule: Q04DX002 (ip), vehicle: saline",92 % of control and 101 % of control
same,T/C,"endpoint: mean survival time, dose: 50.0 mg/kg/injection, schedule: Q01DX001 (ip), vehicle: saline",202 % of control
same,T/C,"endpoint: mean survival time, dose: 54.0 mg/kg/injection, schedule: Q01DX001 (ip), vehicle: saline",300 % of control and 548 % of control
same,T/C,"endpoint: median survival time, dose: 15.0 mg/kg/injection, schedule: Q01DX001 (ip), vehicle: saline",152 % of control
same,T/C,"endpoint: median survival time, dose: 25.0 mg/kg/injection, schedule: Q01DX001 (ip), vehicle: saline",181 % of control
same,T/C,"endpoint: median survival time, dose: 42.0 mg/kg/injection, schedule: Q01DX001 (ip), vehicle: saline",406 % of control
COC(=O)c1cccc(COc2ccc([N+](=O)[O-])cc2Cl)c1,T/C,[1],98 % of control
same,T/C,"endpoint: mean survival time, dose: 100.0 mg/kg/injection, schedule: Q04DX003 (ip), vehicle: saline with Tween-80",101 % of control
same,T/C,[2],96 % of control
same,T/C,"endpoint: mean survival time, dose: 200.0 mg/kg/injection, schedule: Q04DX003 (ip), vehicle: saline with Tween-80",100 % of control
same,T/C,[3],95 % of control
same,T/C,"endpoint: mean survival time, dose: 400.0 mg/kg/injection, schedule: Q04DX003 (ip), vehicle: saline with Tween-80",100 % of control
CC(=O)Nc1nnn(C)n1,T/C,"endpoint: mean survival time, dose: 100.0 mg/kg/injection, schedule: Q04DX003 (ip), vehicle: saline",103 % of control
same,T/C,"endpoint: mean survival time, dose: 200.0 mg/kg/injection, schedule: Q04DX003 (ip), vehicle: saline",100 % of control
same,T/C,"endpoint: mean survival time, dose: 400.0 mg/kg/injection, schedule: Q04DX003 (ip), vehicle: saline",101 % of control
CC12NC(=O)NC1(C)NC(=O)N2 (stereo not given),T/C,[1],95 % of control
same,T/C,[2],101 % of control
same,T/C,[3],86 % of control
CN=Cc1ccccc1,T/C,"endpoint: mean survival time, dose: 25.0 mg/kg/injection, schedule: Q01DX009 (ip), vehicle: saline",97 % of control
same,T/C,"endpoint: mean survival time, dose: 50.0 mg/kg/injection, schedule: Q01DX009 (ip), vehicle: saline",97 % of control
same,T/C,"endpoint: mean survival time, dose: 100.0 mg/kg/injection, schedule: Q01DX009 (ip), vehicle: saline",100 % of control
